# Laboratory results: PMC9025560, “A Comparison of Evans Blue and 4-(p-Iodophenyl)butyryl Albumin Binding Moieties on an Integrin αvβ6 Binding Peptide” (Pharmaceutics, 2022)
# Like-named read-outs stand apart in the source and are kept apart here.
# Assay: Biodistribution in mice bearing BxPC-3 xenograft tumors
# Assay type: in vivo
# Conditions: female, athymic nu/nu-nude, mouse, in vivo, total radioactivity; for tissue uptake at 24 h: 24 h p.i.; for tissue uptake at 48 h: 48 h p.i.
# Experimental: All animal procedures conformed to the Animal Welfare Act and were approved by the University of California, Davis Institutional Animal Care and Use Committee. Female athymic nu/nu-nude mice (6–8 weeks old) were purchased from Charles River Laboratories (Wilmington, MA, USA) and provided food and water on an ad libitum basis. BxPC-3 xenografts were implanted according to previous methods. Briefly, BxPC-3 cells were evaluated by flow cytometry to confirm integrin αvβ6 expression levels, injected subcutaneously into the left flank [5 million in 100 μL of a 1:1 mixture of serum-free RPMI and GFR Matrigel (Corning, New York, NY, USA)], and allowed to grow for approximately 3 weeks until tumors reached a diameter of 0.5–1 cm.
# For biodistribution studies the [^64Cu]1–4 (3.7–5.55 MBq) in PBS (100 μL, pH 7.2) was injected intravenously (i.v.) via catheter into the tail vein. Following a conscious uptake period, the mice were anesthetized (5% isoflurane), euthanized, and dissected ([^64Cu]1 and [^64Cu]2, n = 3/radiolabeled peptide/time point; 4, 24, and 48 h p.i.; the 72 h time point was obtained from the imaging animals after the 72 h PET/CT scans; compounds [^64Cu]3 and [^64Cu]4, n = 2/radiolabeled compound at 4 h p.i.). Tissues were rapidly collected, weighed, and radioactivity measured with a γ-counter. Decay-corrected radioactivity concentrations are expressed as the percentage of injected dose per gram of tissue (% ID/g). Data are reported as mean ± standard deviation (SD) (Figure S20, S21 and S25).
# [1] = iv, i.v., read-out: Bone uptake
# [2] = iv, i.v., read-out: Brain uptake
# [3] = iv, i.v., read-out: BxPC-3 Tumor uptake
# [4] = iv, i.v., read-out: Fecal Matter radioactivity
# [5] = iv, i.v., read-out: Gall Bladder uptake
# [6] = iv, i.v., read-out: Heart uptake
# [7] = iv, i.v., read-out: Kidneys uptake
# [8] = iv, i.v., read-out: Lg. Intestines uptake
# [9] = iv, i.v., read-out: Liver uptake
# [10] = iv, i.v., read-out: Lung uptake
# [11] = iv, i.v., read-out: Muscle uptake
# [12] = iv, i.v., read-out: Pancreas uptake
# [13] = iv, i.v., read-out: Skin uptake
# [14] = iv, i.v., read-out: Sm. Intestines uptake
# [15] = iv, i.v., read-out: Spleen uptake
# [16] = iv, i.v., read-out: Stomach uptake
# [17] = iv, i.v., read-out: Urine radioactivity
smiles,measurement,setting,value
"Cc1cc(-c2ccc(NC(=O)CCC(=O)NCCCC[C@H](NC(=O)CN3CCN(CC(=O)O)CCN(CC(=O)O)CCN(CC(=O)O)CC3)C(=O)NCCOCCOCCOCCOCCOCCOCCOCCOCCOCCOCCOCCOCCOCCOCCOCCOCCOCCOCCOCCOCCOCCOCCOCCOCCOCCOCCOCCOCCC(=O)N[C@@H](CC(N)=O)C(=O)N[C@@H](C)C(=O)N[C@H](C(=O)N3CCC[C@H]3C(=O)N[C@@H](CC(N)=O)C(=O)N[C@@H](CC(C)C)C(=O)N[C@@H](CCCNC(=N)N)C(=O)NCC(=O)N[C@@H](CC(=O)O)C(=O)N[C@@H](CC(C)C)C(=O)N[C@@H](CCC(N)=O)C(=O)N[C@H](C(=O)N[C@@H](CC(C)C)C(=O)N[C@@H](C)C(=O)N[C@@H](CCC(N)=O)C(=O)N[C@@H](CCCNC(=N)N)C(=O)N[C@H](C(=O)N[C@@H](C)C(=O)N[C@@H](CCCNC(=N)N)C(=O)N[C@H](C(=O)NCCOCCOCCOCCOCCOCCOCCOCCOCCOCCOCCOCCOCCOCCOCCOCCOCCOCCOCCOCCOCCOCCOCCOCCOCCOCCOCCOCCOCCC(N)=O)[C@@H](C)O)C(C)C)C(C)C)C(C)C)c(C)c2)ccc1N=Nc1ccc2c(S(=O)(=O)O)cc(S(=O)(=O)O)c(N)c2c1O [[^64Cu]1, [^64Cu]Cu DOTA-EB-αvβ6-BP, metal not drawn]",tissue uptake at 24 h,[1],0.34 ± 0.13 %ID/g
same,tissue uptake at 24 h,[2],0.09 ± 0.01 %ID/g
same,tissue uptake at 24 h,[3],5.03 ± 0.97 %ID/g
same,tissue uptake at 24 h,[4],2.85 ± 0.55 %ID/g
same,tissue uptake at 24 h,[5],1.85 ± 0.27 %ID/g
same,tissue uptake at 24 h,[6],0.92 ± 0.05 %ID/g
same,tissue uptake at 24 h,[7],40.5 ± 7.7 %ID/g
same,tissue uptake at 24 h,[8],3.46 ± 0.45 %ID/g
same,tissue uptake at 24 h,[9],2.09 ± 0.1 %ID/g
same,tissue uptake at 24 h,[10],2.79 ± 1.62 %ID/g
same,tissue uptake at 24 h,[11],0.5 ± 0.2 %ID/g
same,tissue uptake at 24 h,[12],0.48 ± 0.03 %ID/g
same,tissue uptake at 24 h,[13],1.08 ± 0.3 %ID/g
same,tissue uptake at 24 h,[14],2.78 ± 0.31 %ID/g
same,tissue uptake at 24 h,[15],0.56 ± 0.16 %ID/g
same,tissue uptake at 24 h,[16],4.18 ± 0.54 %ID/g
same,tissue uptake at 24 h,[17],5.01 ± 0.29 %ID/g
same,tissue uptake at 48 h,"iv, i.v., read-out: Blood uptake",0.33 ± 0.1 %ID/g
same,tissue uptake at 48 h,[1],0.3 ± 0.08 %ID/g
same,tissue uptake at 48 h,[2],0.12 ± 0.02 %ID/g
same,tissue uptake at 48 h,[3],4 ± 1.51 %ID/g
same,tissue uptake at 48 h,[4],2.34 ± 0.89 %ID/g
same,tissue uptake at 48 h,[5],1.75 ± 0.61 %ID/g
same,tissue uptake at 48 h,[6],1.02 ± 0.17 %ID/g
same,tissue uptake at 48 h,[7],26.2 ± 5.89 %ID/g
same,tissue uptake at 48 h,[8],2.65 ± 0.05 %ID/g
same,tissue uptake at 48 h,[9],2.59 ± 0.51 %ID/g
same,tissue uptake at 48 h,[10],2.33 ± 0.32 %ID/g
same,tissue uptake at 48 h,[11],0.49 ± 0.07 %ID/g
same,tissue uptake at 48 h,[12],0.41 ± 0.2 %ID/g
same,tissue uptake at 48 h,[13],1.12 ± 0.18 %ID/g
same,tissue uptake at 48 h,[14],1.85 ± 0.07 %ID/g
same,tissue uptake at 48 h,[15],0.5 ± 0.18 %ID/g
same,tissue uptake at 48 h,[16],3.02 ± 0.52 %ID/g
same,tissue uptake at 48 h,[17],3.92 ± 1.05 %ID/g
same,tissue uptake at 72 h,"iv, 72 h p.i., i.v., read-out: Blood uptake",0.35 ± 0.08 %ID/g
same,tissue uptake at 72 h,"iv, 72 h p.i., i.v., read-out: Bone uptake",0.25 ± 0.13 %ID/g
same,tissue uptake at 72 h,"iv, 72 h p.i., i.v., read-out: Brain uptake",0.16 ± 0.04 %ID/g
same,tissue uptake at 72 h,"iv, 72 h p.i., i.v., read-out: BxPC-3 Tumor uptake",3.32 ± 0.46 %ID/g
same,tissue uptake at 72 h,"iv, 72 h p.i., i.v., read-out: Fecal Matter radioactivity",1.81 ± 0.74 %ID/g
same,tissue uptake at 72 h,"iv, 72 h p.i., i.v., read-out: Gall Bladder uptake",1.75 ± 0.65 %ID/g
same,tissue uptake at 72 h,"iv, 72 h p.i., i.v., read-out: Heart uptake",1.15 ± 0.2 %ID/g
same,tissue uptake at 72 h,"iv, 72 h p.i., i.v., read-out: Kidneys uptake",20 ± 6.91 %ID/g
same,tissue uptake at 72 h,"iv, 72 h p.i., i.v., read-out: Lg. Intestines uptake",1.95 ± 0.29 %ID/g
same,tissue uptake at 72 h,"iv, 72 h p.i., i.v., read-out: Liver uptake",2.36 ± 0.51 %ID/g
same,tissue uptake at 72 h,"iv, 72 h p.i., i.v., read-out: Lung uptake",1.88 ± 0.11 %ID/g
same,tissue uptake at 72 h,"iv, 72 h p.i., i.v., read-out: Muscle uptake",0.44 ± 0.12 %ID/g
same,tissue uptake at 72 h,"iv, 72 h p.i., i.v., read-out: Pancreas uptake",0.59 ± 0.12 %ID/g
same,tissue uptake at 72 h,"iv, 72 h p.i., i.v., read-out: Skin uptake",0.88 ± 0.12 %ID/g
same,tissue uptake at 72 h,"iv, 72 h p.i., i.v., read-out: Sm. Intestines uptake",1.38 ± 0.18 %ID/g
same,tissue uptake at 72 h,"iv, 72 h p.i., i.v., read-out: Spleen uptake",0.58 ± 0.16 %ID/g
same,tissue uptake at 72 h,"iv, 72 h p.i., i.v., read-out: Stomach uptake",2.02 ± 0.16 %ID/g
same,tissue uptake at 72 h,"iv, 72 h p.i., i.v., read-out: Urine radioactivity",3.17 ± 1.58 %ID/g
same,tissue uptake at 72 h,"72 h, read-out: GI uptake",< 3.2 %ID/g
same,tissue uptake,"throughout 4–72 h, read-out: Liver uptake throughout",< 3 %ID/g
